Data on 3 compounds can be found in patent US6627732B1, “Glutathione derivatives and their dosage forms” (Teijin Limited, priority 1998, dated 2003).

One data set is described as follows: Stability in rat plasma. The data set is classed as in vitro ADME. Conditions: for Half life in rat plasma: heparinized plasma, diluted as needed with BSA/D-PBS, 250-323 μg/ml. The procedure: (§1) Rat, rabbit, and human plasma
(§2) Heparinized plasma: 30 to 40 parts
(rat plasma was diluted, as needed, with 30 mg-BSA/ml-D-PBS (pH 7.4) for use)

A short description of data set [1]: Stability in rabbit plasma. The settings on record: rabbit, plasma. The procedure:
(§3) (1) Bovine serum albumin (hereinafter referred to as BSA), Dulbecco's phosphate buffered saline (hereinafter referred to as D-PBS), swine liver esterase, and rabbit liver esterase were purchased from Sigma, 6-week old male SD rats were purchased from Nippon SLC, and 12-week old or older male Japanese white rabbits were purchased from Ichikawaya. On the day of the incubation experiment described below, blood was drawn from the animals in the presence of heparin, and plasma was separated therefrom for use. Human plasma was obtained from normal healthy males after obtaining their consent.
(§4) (2) The glutathione derivatives described in the Examples and Comparative Examples of the present invention were incubated for a fixed time in an enzyme solution having the following composition. Acetonitrile was added to the reaction mixture to inactivate the enzyme thereby to stop the reaction. The concentration of the glutathione derivatives in the deproteinized supernatant was measured by HPLC. For each time point of the esterase enzyme experiment, the mean values from two measurement or more were determined, and for the rats and rabbits the mean values of plasma samples from three individuals were determined. For some of the experiment data, changes with time of percentages relative to initial concentration of the glutathione derivative are shown in FIGS. 2 to 4.
as §1, §2
10 mg-glutathione derivative/ml-ethanol: one part (the final concentration in the reaction mixture is 250-323 μg/ml)

In the next data set the test system is swine liver esterase. Kind of data set: Decomposition of glutathione derivatives by swine liver esterase (physiological stability). The data set is classed as in vitro ADME. Conditions: BSA/D-PBS pH 7.4, 196-244 μg/ml. The procedure: as §3, §4
Swine liver esterase and rabbit liver esterase experiment
30 mg-BSA/ml-D-PBS (pH 7.4): 36 to 45 parts
Swine or rabbit liver esterase/D-PBS: 4-5 parts
10 mg-glutathione derivative/ml-ethanol: one part (the final concentration in the reaction mixture is 196-244 μg/ml)

Data set [2] is described as follows: Pharmacokinetics after intravenous administration to rabbits, 2-compartment model (Example 25). The data set is classed as in vivo, rabbit. The settings on record: iv auricular vein 2 ml/kg, fat emulsion (Comparative Ex. 1: HPCD/glucose solution). From the text: For the glutathione derivative of the present invention having a long-chain ester having 12 carbons or more and the glutathione derivatives of the conventional technology of Comparative Examples 1 and 2, kinetics in the blood were compared in rabbits that are a species having allow esterase activity in the blood.
(1) Male Japanese white rabbits, 12-week old or older, were purchased from Ichikawaya, and those rabbits that became 15-week old or older and whose body weight reached about 3 kg were used for the experiment. During the period up to the experiment, the animals were allowed free access to the animal feed and drinking water and were kept at a temperature of 24±2° C. and a humidity of 55±5%.
(2) The glutathione derivative having a long-chain ester of 12 carbons or more and the glutathione derivative of Comparative Example 2 were prepared at 20-200 mg/ml in a mixture of ethanol or ethanol:benzyl alcohol, which was mixed with the fat emulsion just prior to use, and was filtered with a 1.2 μm filter to obtain a liquid for intravenous administration. On the other hand, the glutathione derivative of Comparative Example 1 was dissolved in an aqueous solution of 6%-hydroxypropyl-β-cyclodextrin/5%-glucose at 15 mg/ml to obtain an administration liquid.
(3) The administration liquid of the glutathione derivative obtained in (2) at a dose of 2 ml/kg was rapidly infused into the left auricular vein of the rabbits under no anesthesia and under restraint at a rate of 1 ml/min. Each glutathione derivative was given to three or more rabbits. At 5, 10, 15, 30, 60, 120, and 240 minutes after the completion of the administration, 1 ml of the blood was drawn from the right auricular vein in the presence of heparin, which was immediately cooled on ice. Plasma was obtained by centrifuging the blood, 1-2 volume parts of acetonitrile was added to deproteinize the supernatant, which was filtered by a 0.5 μm filter. The supernatant of the filtrate was quantitated by HPLC.

SMILES strings stand for the structures.

Take `CCCCCCCCCCCCCCCCOC(=O)[C@@H](N)CCC(=O)N[C@@H](CSCc1ccccc1)C(=O)N[C@@H](C(=O)OCC)c1ccccc1.Cl` [Example 4, Glu(Cys(Bzl)-D-Phg-OEt)-O(Hexadecyl)hydrochloride]: the “Half life in rat plasma” value in the data set “Stability in rat plasma” was determined as 2.57 h. Moreover, the “Half life in rabbit plasma” value in data set [1] came out at 22.05 h. In the data set on swine liver esterase, the “Decomposition rate constant by swine liver esterase” value (“Decomposition rate constant” for short) is 0.466 10^−4/unit/min. In data set [2], the “Clearance per body weight” value was found to be 0.20 L/h/kg and the “Distribution volume per body weight of the central compartment” value (“Distribution volume per body weight” below) was 0.06 L/kg.
As to `CCOC(=O)[C@@H](N)CCC(=O)N[C@@H](CSCc1ccccc1)C(=O)N[C@@H](C(=O)OCC)c1ccccc1.Cl` [Comparative Example 1, Glu(Cys(Bzl)-D-Phg-O(Et))-O(Et)hydrochloride, reference compound], in the data set “Stability in rat plasma”, the “Stability in biological sample solutions such as rat blood” value was “very unstable” and the “Half life in rat plasma” value worked out at 0.00217 h. Besides, the “Half life in the plasma of experimental animals” value in the data set “Stability in rat plasma” (mice and rats) was “extremely short half life”. Besides, the “Half life in rabbit plasma” value in data set [1] was 6.53 h. In addition, the “Decomposition rate constant” value in the data set with swine liver esterase is on record as 121 10^−4/unit/min. Besides, in data set [2], the “Clearance per body weight” value stood at 15.27 L/h/kg and the “Distribution volume per body weight” value is 0.80 L/kg.
As for `CCCCCCCCOC(=O)[C@H](NC(=O)[C@H](CSCc1ccccc1)NC(=O)CC[C@H](N)C(=O)OCC)c1ccccc1.Cl` [Comparative Example 2, Glu(Cys(Bzl)-D-Phg-O(Octyl))-O(Et)hydrochloride, reference compound], the “Half life in rat plasma” value in the data set “Stability in rat plasma” came to 0.0035 h. Moreover, the “Half life in rabbit plasma” value in data set [1] turned out to be 3.97 h. Besides, in the data set with swine liver esterase, the “Decomposition rate constant” value is on record as 364 10^−4/unit/min. Also, in data set [2], the “Clearance per body weight” value turned out to be 9.34 L/h/kg and the “Distribution volume per body weight” value amounted to 4.18 L/kg.
